In patent US4551538A, “Phenylpyrazolidine acetic acid derivatives” (American Home Products Corporation, priority 1984, dated 1985):
Where “and” joins values, the source holds several entries; their conditions need not be identical. Equal entries are not always repeated. Where two headings read alike, the source gives them in different places. Blank lines part the entries; values can stand above or below the compound they belong to.

Columns and labels:
[1] = tested on: AA-induced mouse ear edema; assay: arachidonic acid (AA)-induced murine ear edema test; type: in vivo, mouse (Swiss Webster); conditions: for % Change from Control, AA ear edema: * p ≤ 0.05; for ED50: Mus musculus, 1 h
Text: (§1) The ability of the compounds of the invention to inhibit the lipoxygenase and cyclooxygenase pathways of arachidonic acid is examined in the in vivo arachidonic acid (AA)-/12-O-tetradecanoylphorbol acetate (TPA)-induced murine ear edema test.
(§2) According to this test, Swiss Webster female mice (Buckshire), approximately 8 weeks old, are placed into plastic boxes in groups of six. Eight groups of mice receive AA topically on the right ear, and another 8 groups receive TPA topically on the right ear. AA and TPA are dissolved in acetone at concentrations of 100 mg/ml and 100 μg/ml respectively. The phlogistics are applied to the right ear by the means of an automatic pipet. Volumes of 10 μl are applied to the inner and outer surfaces of the ear. Each mouse receives either 2 mg/ear AA or 4 μg/ear TPA. The left ear (control) receives acetone delivered in the same manner. Oral and topical dosing regimens are as follows: (1) drugs are given 30 minutes prior to AA treatment, and (2) drugs are given 30 minutes after treatment with TPA.
(§3) Measurements are taken with Oditest calipers, 0-10 mm with 0.01 graduations. The right and left ears are measured after 1 hour AA-induced inflammation and 4 hours after TPA-induced inflammation.
(§4) The difference between right and left ear thickness is calculated and the significance is determined by a one way analysis of variance with Dunnett's comparisons to control (P=0.05). Drug effects are expressed as a percent change from control values: [formula]

[2] = tested on: arachidonic acid lipoxygenase oxidation product 5-HETE; assay: inhibition of 5-HETE synthesis by rat glycogen-elicited polymorphonuclear leukocytes; type: cell-based, rat (Wistar); conditions: Leukocyte, read-out: 50% Inhibitory Concentration of (IC50) 5-HETE
Procedure: The assay of this Example measures the ability of the compounds of the invention to inhibit the synthesis of 5-HETE by rat glycogen-elicited polymorphonuclear leukocytes.
The assay is carried out as follows:
(§5) Peritoneal PMN are obtained from female Wistar rats (150-250 g) that received an i.p. injection of 6% glycogen (10 ml). After 24 hours, rats are killed by CO2 asphyxiation and peritoneal cells are harvested by peritoneal lavage using Ca^++ and Mg^++ free Hanks' balanced salt solution (HBSS). The peritoneal exudate is centrifuged at 400 g for 10 minutes. After centrifugation, the lavaged fluid is removed and the cell pellet is resuspended in HBSS containing Ca^++ and Mg^++ and 10 mM L-cysteine at a concentration of 2×10^7 cells/ml. To 1 ml portions of cell suspension, test drugs or vehicle are added and incubated at 37° C. for 10 minutes. Following this preincubation, the calcium ionophore (10 μM), A23187, is added together with 0.5 μCi [^14 C] arachidonic acid and further incubated for 10 minutes. The reaction is stopped by the addition of ice cold water (3 ml) and acidifying to pH 3.5. Lipoxygenase products are then extracted twice into diethyl ether. The pooled ether extracts are evaporated to dryness under nitrogen and the residue is redissolved in a small volume of methanol and spotted on aluminum backed pre-coated thin layer chromatographic plates. The samples are then co-chromatographed with authentic reference 5-HETE, in the solvent system--hexane:ether:acetic acid (50:50:3). After chromatography, the areas associated with 5-HETE standard are identified by autoradiography, cut out and quantitated by liquid scintillation.
(§6) Results are expressed as % inhibition of [^14 C]5-HETE synthesis. [formula]

[3] = tested on: TPA-induced mouse ear edema; assay: 12-O-tetradecanoylphorbol acetate (TPA)-induced murine ear edema test; type: in vivo, mouse (Swiss Webster); conditions: for % Change from Control, TPA ear edema: * p ≤ 0.05; for ED50: Mus musculus, 4 h
Text: as §1, §2, §3, §4

[4] = tested on: acute inflammatory response (carrageenan rat paw edema); assay: carrageenan rat paw edema test; type: in vivo, rat (Sprague-Dawley); conditions: for % Inhibition of paw edema: 200 mg/kg perorally, 3 h reading; for profile of activity in carrageenan rat paw edema test: in vivo; for ED50: Rattus norvegicus, po, 3 h, read-out: ED50, paw edema
Procedure: In this test, male Sprague-Dawley (Charles River) rats weighing 140-180 gm, in groups of 6 animals, are injected subcutaneously in the right paw with 0.1 ml of 1% carrageenan at zero time. Mercury plethysmographic readings (ml) of the paw are made at zero time and 3 hours later. Drugs are suspended or dissolved in 0.5% methylcellulose and given perorally one hour prior to carrageenan. The increase in paw volume (edema in ml) produced by the inflammatory agent, carrageenan, is measured.
Unpaired Student's t-test is used to determine statistical significance.

[5] = tested on: arachidonic acid cyclooxygenase oxidation product PGE2; assay: inhibition of PGE2 synthesis by rat polymorphonuclear leukocytes; type: cell-based, rat (Wistar); conditions: read-out: 50% Inhibitory Concentration (IC50), PGE2
Procedure: as §5, §6
However, in order to determine cyclooxygenase activity, the samples are cochromatographed with authentic reference PGE2 in the solvent system ethyl acetate:formic acid (80:1) and the upper phase of ethyl acetate:isoctane:acetic acid:water (110:50:20:100). After chromatography, the areas associated with PGE2 standard are identified by autoradiography, cut out and quantitated by liquid scintillation techniques.

[6] = tested on: phenylbenzoquinone-induced writhing; assay: phenylbenzoquinone-induced writhing test; type: in vivo, mouse (CF-1)
Procedure: In this procedure, test compound or vehicle is administered at various doses to ten male CF-1 mice, weighing 20-25 g, per dose level. The animals then receive intraperitoneal injection with 0.25 ml of the writhing agonist (a 0.02% solution of benzoquinone) 5 minutes before the beginning of a pre-selected, 10-minute observation period. Typical observation periods include 10 to 20, 25 to 35, 40 to 50 and 55 to 65 minutes following administration of the test compound. The mice are observed during the observation period and the total numbers of writhes are determined for each mouse.

[7] = tested on: urate-induced canine synovitis; assay: urate-induced canine synovitis test; type: in vivo, dog (mongrel); conditions: Canis lupus familiaris, read-out: Oral ED50
Procedure: In this procedure, healthy mongrel dog of either sex weighing between 14-20 kg are adapted to a measuring platform. […] A Hewlett Packard 75C computer then converts voltage into kilogram units (mean pressure reading for 1 minute). This control pressure represents the 100% value in this procedure. Synovitis is induced by injecting 5 mg of sodium urate crystals (5-15μ in length) in 1 ml of 0.9% saline solution into the synovial space of the right or left knee. Readings are taken at 1, 2, 2.5, 3, 3.5, 4, 4.5 and 5 hours after urate administration and calculated as a percentage of control hind paw pressure. […] Dogs are used only once in these experiments to prevent tolerance.
Each dog is placed on the pressure measuring apparatus with its left or right hind paw centered above the load cell, and pressure readings are recorded for one minute. Two or three control readings are averaged and represent control paw pressure. Single pressure readings are taken after sodium urate injection.
Drug effects are expressed as a percentage of control paw pressure which is calculated as follows:
Test reading/Control reading×100
Test reading=Pressure measurement after sodium urate injection and drug or no drug (blank capsule).
Control reading=Mean pressure measurement before sodium urate injection.
A one-way analysis of variance with Dunnett's comparisons to control (α=0.05 and 0.01) was used to determine statistical significance.

lipoxygenase = conditions: background statement; cited from earlier work
cyclooxygenase = conditions: background statement; cited from earlier work
[8] = rat PMN, A23187 10 μM, [14C] arachidonic acid
[9] = Leukocyte, rat PMN, A23187 10 μM, [14C] arachidonic acid
[10] = perorally, 1 h prior to carrageenan
[11] = 200 mg/kg; Control = 15.5; * p ≤ 0.05

IC50 [2, 8]: 2 to 3 µM
IC50 [5, 9]: 140 µM
Structure (SMILES): O=C(O)C(O)N1C(=O)CCN1c1ccc(Cl)cc1 (stereo not drawn) [Example 5, 2-(4-Chlorophenyl)-α-hydroxy-5-oxo-1-pyrazolidine acetic acid]
% Change from Control, AA ear edema ([1]; oral, 50 mg/kg, 1 h after AA): -22%
% Change from Control, TPA ear edema ([3]; oral, 50 mg/kg, 4 h after TPA): -8%
% Inhibition of paw edema ([4]; 1 h prior to carrageenan): 30%

IC50 [5, 8]: < 50 µM
Structure (SMILES): O=C(O)C(O)N1C(=O)CCN1c1cccc(C(F)(F)F)c1 (stereo not drawn) [Example 1, α-Hydroxy-5-oxo-2-[3-(trifluoromethyl)phenyl]-1-pyrazolidine acetic acid]
% Change from Control, AA ear edema ([1]; topical, 1.0 mg/ear): -83% and -74%

IC50 [2, 8]: 3 to 5 µM
Structure (SMILES): O=C(O)C(O)N1C(=O)CCN1c1ccccc1 (stereo not drawn) [Example 2, α-Hydroxy-5-oxo-2-phenyl-1-pyrazolidine acetic acid]
% Change from Control, AA ear edema ([1]; oral, 100 mg/kg, 1 h after AA): -30%
% Change from Control, AA ear edema ([1]; topical, 0.1 mg/ear): -21%
% Change from Control, AA ear edema ([1]; topical, 0.33 mg/ear): -26%
% Change from Control, AA ear edema ([1]; topical, 1.0 mg/ear): -54%
% Change from Control, TPA ear edema ([3]; oral, 100 mg/kg, 4 h after TPA): -8%
% Change from Control, TPA ear edema ([3]; topical, 0.1 mg/ear): -12%
% Change from Control, TPA ear edema ([3]; topical, 0.33 mg/ear): -31%
% Change from Control, TPA ear edema ([3]; topical, 1.0 mg/ear): -23%
% Inhibition of paw edema ([4]; 1 h prior to carrageenan): 46%
profile of activity in carrageenan rat paw edema test [4]: a profile of activity similar to that of phenidone
Mean No. of Writhes ([6]; 100 mg/kg; Control = 5.1): 3.5
Mean No. of Writhes ([6]; 133 mg/kg; Control = 15.5; * p ≤ 0.05): 3.2
ED50 ([7]; oral, 2 h after urate): 5 mg/kg

IC50 [2, 8]: < 50 µM
Structure (SMILES): O=C(O)C(O)N1C(=O)CCN1c1cccc([N+](=O)[O-])c1 (stereo not drawn) [Example 6, α-Hydroxy-5-oxo-2-(3-nitrophenyl)-1-pyrazolidine acetic acid]
% Change from Control, AA ear edema ([1]; oral, 100 mg/kg, 1 h after AA): +4%
% Change from Control, TPA ear edema ([3]; oral, 100 mg/kg, 4 h after TPA): -23%

IC50 [2, 8]: 12 µM
IC50 [5, 9]: > 100 µM
Structure (SMILES): O=C1CCN(c2ccccc2)N1 [phenidone, 1-phenyl-3-pyrazolidone, reference compound]
ED50 ([1]; oral): 84 mg/kg
ED50, AA ear edema ([1]; topical): 0.1 mg/ear
inhibition of lipoxygenase activity (lipoxygenase): inhibitors of both cyclooxygenase and lipoxygenase activity
inhibition of cyclooxygenase activity (cyclooxygenase): inhibitors of both cyclooxygenase and lipoxygenase activity
ED50 ([3]; oral): 235 mg/kg
ED50, TPA ear edema ([3]; topical): 0.6 mg/ear
ED50 [4, 10]: 196 mg/kg
Mean No. of Writhes ([6]; 200 mg/kg; Control = 4.0): 2.2
ED50 ([7]; oral, 2 h after urate): 4.3 mg/kg

Structure (SMILES): CC(=O)Oc1ccccc1C(=O)O [aspirin, reference compound]
Mean No. of Writhes [6, 11]: 6.6

IC50 [2, 8]: 5 to 13 µM
Structure (SMILES): O=C(O)C(O)N1C(=O)CCN1c1cccc(F)c1 (stereo not drawn) [Example 4, 2-(3-Fluorophenyl)-α-hydroxy-5-oxo-1-pyrazolidine acetic acid]
% Change from Control, AA ear edema ([1]; oral, 100 mg/kg, 1 h after AA): -11%
% Change from Control, AA ear edema ([1]; topical, 0.1 mg/ear): -27%
% Change from Control, AA ear edema ([1]; topical, 0.33 mg/ear): -38%
% Change from Control, AA ear edema ([1]; topical, 1.0 mg/ear): -63%
% Change from Control, TPA ear edema ([3]; oral, 50 mg/kg, 4 h after TPA): 0%
% Change from Control, TPA ear edema ([3]; oral, 100 mg/kg, 4 h after TPA): -27%
% Change from Control, TPA ear edema ([3]; topical, 0.1 mg/ear): -10%
% Change from Control, TPA ear edema ([3]; topical, 0.33 mg/ear): -23%
% Change from Control, TPA ear edema ([3]; topical, 1.0 mg/ear): -45%
% Inhibition of paw edema ([4]; 1 h prior to carrageenan): 44%
profile of activity in carrageenan rat paw edema test [4]: a profile of activity similar to that of phenidone
Mean No. of Writhes ([6]; 100 mg/kg; Control = 4.5): 3.8
Mean No. of Writhes [6, 11]: 1.7

Structure (SMILES): COc1ccc2c(c1)c(CC(=O)O)c(C)n2C(=O)c1ccc(Cl)cc1 [indomethacin, reference compound]
activity in AA ear edema ([1]; oral, 10 mg/kg): NA(10)
ED50, AA ear edema ([1]; topical): 0.1 mg/ear
activity in TPA ear edema ([3]; oral, 10 mg/kg): NA(10)
ED50, TPA ear edema ([3]; topical): 0.08 mg/ear
ED50 [4]: 5.6 mg/kg
ED50 ([6]; Mus musculus, read-out: ED50, writhing): 10 mg/kg
ED50 ([7]; po, 2 h): 0.3 mg/kg

IC50 [2, 8]: 2 to 5 µM
IC50 [5, 9]: 110 µM
Structure (SMILES): O=C(O)C(O)N1C(=O)CCN1c1cccc(Cl)c1 (stereo not drawn) [Example 3, 2-(m-Chlorophenyl)-α-hydroxy-5-oxo-1-pyrazolidine acetic acid]
% Change from Control, AA ear edema ([1]; oral, 50 mg/kg, 1 h after AA): -5%
% Change from Control, TPA ear edema ([3]; oral, 50 mg/kg, 4 h after TPA): -8%
% Inhibition of paw edema ([4]; 1 h prior to carrageenan): 29%

Structure (SMILES): NC1=NN(c2cccc(C(F)(F)F)c2)CC1 [BW755C, 3-amino-1-[m-(trifluoromethyl)phenyl]-2-pyrazoline, reference compound]
ED50 ([1]; oral): 65 mg/kg
inhibition of lipoxygenase activity (lipoxygenase): inhibitors of both cyclooxygenase and lipoxygenase activity
IC50 ([2]; Rattus norvegicus): 43 µM
inhibition of cyclooxygenase activity (cyclooxygenase): inhibitors of both cyclooxygenase and lipoxygenase activity
ED50 ([3]; oral): 88 mg/kg
ED50 [4, 10]: 72 mg/kg
ED50 ([6]; Mus musculus; read-out: ED50, writhing): 100 mg/kg
IC50 ([5]; Rattus norvegicus, Leukocyte): 25 µM
ED50 ([7]; oral, 2 h after urate): 1.5 mg/kg
